Assay results published in patent US6710049B2, “Azole compounds as anti-fungal agents” (Ranbaxy Laboratories Limited, priority 2000, dated 2004).
≈ marks a conversion by molar mass, not a printed value.

Tests used:
C neoformans I = assay: MIC determination (NCCLS broth method); type: cell-based, Cryptococcus neoformans; settings: Cryptococcus neoformans, read-out: Minimum Inhibitory Concentration (MIC)
From the text: (§1) The in-vitro evaluation of the antifungal activity of the compounds can be performed by determining the minimum inhibitory concentration (MIC) as shown in Table 1 which is the concentration of the test compound in Rosewell Park Memorial Institute (RPMI) 1640 liquid medium buffered with 3-(Morpholino)propanesulphonic acid (MOPS) to pH 7, at which there is significant inhibition of the particular fungi. In practice the National Committee for Clinical Laboratory Standard (NCCLS) M27A document for Candida and Cryptococcus and M38P for Aspergillus was used to determine the MIC against yeast and filamentous fungi with suitable modifications for dermatophytes to other filamentous fungi. Three quality control strains were included each time the MIC were determined and readings recorded only when the Quality Control results fell into the acceptable range. After MIC results had been recorded, 100 μl from each of the well showing no growth was spread over Sabouraud Dextrose Agar (SDA) to determine the minimum fungicidal concentration (MFC) as shown in Table 2.

C neoformans M-106 = assay: MIC determination (NCCLS broth method); type: cell-based, Cryptococcus neoformans; settings: Cryptococcus neoformans, M106, read-out: Minimum Inhibitory Concentration (MIC)
From the text: as §1

[1] = test system: Penicillium spp. isolates; assay: Comparative in vitro MIC, isolate panel; type: cell-based
From the text: as §1
(§2) A comparative in vitro and in vivo biologically activity data of the compound of our invention, 2-{[1R,2R]-2-(2,4-Difluorophenyl)-2-hydroxy-1-methyl-3-(1H-1,2,4-triazole-1-yl)propyl}-4-[(2′,2′,3′,3′-tetrafluoropropoxyphenyl)-3-(2H,4H)-1,2,4-thiotriazolone (Compound No. 3) with 2-[(1R,2R)-2-(2,4-difluorophenyl)-2-hydroxy-1-methyl-3-(1H-1,2,4-triazol-1-yl)propyl]-4-(2′,2′,3′,3′-tetraflouropropoxyphenyl)-3(2H,4H)-1,2,4-triazolone (TAK 187) and standard antifungal pharmaceuticals is given below: […]

All fungal pathogens = assay: Comparative in vitro MIC, isolate panel; type: cell-based
From the text: as §1, §2

All Candida isolates = assay: Comparative in vitro MIC, isolate panel; type: cell-based
From the text: as §1, §2

Rhizoupus spp. isolates = assay: Comparative in vitro MIC, isolate panel; type: cell-based
From the text: as §1, §2

Fusarium spp. isolates = assay: Comparative in vitro MIC, isolate panel; type: cell-based
From the text: as §1, §2

All Filamentous isolates = assay: Comparative in vitro MIC, isolate panel; type: cell-based
From the text: as §1, §2

[2] = test system: Aspergillus fumigatus isolates; assay: Comparative in vitro MIC, isolate panel; type: cell-based
From the text: as §1, §2

Penicilliuim 2306 = assay: MIC determination (NCCLS broth method); type: cell-based, Penicillium; settings: Penicillium, read-out: Minimum Inhibitory Concentration (MIC)
From the text: as §1

P variotii 22319 [3] = assay: MIC determination (NCCLS broth method); type: cell-based, Paecillomyces variotii; settings: read-out: Minimum Inhibitory Concentration (MIC)
From the text: as §1

Penicillium 1641 = assay: MIC determination (NCCLS broth method); type: cell-based; settings: read-out: Minimum Inhibitory Concentration (MIC)
From the text: as §1

Mucor (Ceylon) = assay: MIC determination (NCCLS broth method); type: cell-based; settings: read-out: Minimum Inhibitory Concentration (MIC)
From the text: as §1

Penicillium 3162 = assay: MIC determination (NCCLS broth method); type: cell-based; settings: read-out: Minimum Inhibitory Concentration (MIC)
From the text: as §1

A flavus E4 - 1042 = assay: MIC determination (NCCLS broth method); type: cell-based; settings: read-out: Minimum Inhibitory Concentration (MIC)
From the text: as §1

C tropicalis 750 = assay: MIC determination (NCCLS broth method); type: cell-based; settings: read-out: Minimum Inhibitory Concentration (MIC)
From the text: as §1

Rhizopus (Ceylon) = assay: MIC determination (NCCLS broth method); type: cell-based; settings: read-out: Minimum Inhibitory Concentration (MIC)
From the text: as §1

A flavus E3 - 1044 = assay: MIC determination (NCCLS broth method); type: cell-based; settings: read-out: Minimum Inhibitory Concentration (MIC)
From the text: as §1

Rhizopus 1052 = assay: MIC determination (NCCLS broth method); type: cell-based; settings: read-out: Minimum Inhibitory Concentration (MIC)
From the text: as §1

Penicillium H - 1048 = assay: MIC determination (NCCLS broth method); type: cell-based; settings: H1048, read-out: Minimum Inhibitory Concentration (MIC)
From the text: as §1

C krusei 6258 = assay: MIC determination (NCCLS broth method); type: cell-based; settings: read-out: Minimum Inhibitory Concentration (MIC)
From the text: as §1

A flavus P3 - 1041 = assay: MIC determination (NCCLS broth method); type: cell-based; settings: read-out: Minimum Inhibitory Concentration (MIC)
From the text: as §1

C glabrata 90030 = assay: MIC determination (NCCLS broth method); type: cell-based; settings: read-out: Minimum Inhibitory Concentration (MIC)
From the text: as §1

C parapsilosis 22019 = assay: MIC determination (NCCLS broth method); type: cell-based; settings: read-out: Minimum Inhibitory Concentration (MIC)
From the text: as §1

Penicillium 2548 = assay: MIC determination (NCCLS broth method); type: cell-based; settings: read-out: Minimum Inhibitory Concentration (MIC)
From the text: as §1

Fusarium 1050 = assay: MIC determination (NCCLS broth method); type: cell-based; settings: read-out: Minimum Inhibitory Concentration (MIC)
From the text: as §1

P variotii 22319 [4] = assay: MFC determination (subculture on Sabouraud Dextrose Agar); type: cell-based, Paecillomyces variotii; settings: read-out: Minimum Fungicidal Concentration (MFC)
From the text: as §1

A fumigatus 1008 [5] = assay: as above; type: cell-based, Aspergillus fumigatus; settings: Aspergillus fumigatus, read-out: Minimum Fungicidal Concentration (MFC)
From the text: as §1

A fumigatus SI-1 - 1019 [6] = assay: as above; type: cell-based, Aspergillus fumigatus; settings: Aspergillus fumigatus, SI11019, read-out: Minimum Fungicidal Concentration (MFC)
From the text: as §1

A fumigatus L - 1034 = assay: MIC determination (NCCLS broth method); type: cell-based, Aspergillus fumigatus; settings: Aspergillus fumigatus, L1034, read-out: Minimum Inhibitory Concentration (MIC)
From the text: as §1

A fumigatus PGI - 1023 = assay: MIC determination (NCCLS broth method); type: cell-based, Aspergillus fumigatus; settings: Aspergillus fumigatus, PGI1023, read-out: Minimum Inhibitory Concentration (MIC)
From the text: as §1

A fumigatus 1008 [7] = assay: MIC determination (NCCLS broth method); type: cell-based, Aspergillus fumigatus; settings: Aspergillus fumigatus, read-out: Minimum Inhibitory Concentration (MIC)
From the text: as §1

A fumigatus J - 1032 = assay: MIC determination (NCCLS broth method); type: cell-based, Aspergillus fumigatus; settings: Aspergillus fumigatus, J1032, read-out: Minimum Inhibitory Concentration (MIC)
From the text: as §1

A fumigatus I - 1011 = assay: MIC determination (NCCLS broth method); type: cell-based, Aspergillus fumigatus; settings: Aspergillus fumigatus, I1011, read-out: Minimum Inhibitory Concentration (MIC)
From the text: as §1

A fumigatus II - 1012 = assay: MIC determination (NCCLS broth method); type: cell-based, Aspergillus fumigatus; settings: Aspergillus fumigatus, II1012, read-out: Minimum Inhibitory Concentration (MIC)
From the text: as §1

A fumigatus K - 1033 = assay: MIC determination (NCCLS broth method); type: cell-based, Aspergillus fumigatus; settings: Aspergillus fumigatus, K1033, read-out: Minimum Inhibitory Concentration (MIC)
From the text: as §1

A fumigatus SI-1 - 1019 [8] = assay: MIC determination (NCCLS broth method); type: cell-based, Aspergillus fumigatus; settings: Aspergillus fumigatus, SI11019, read-out: Minimum Inhibitory Concentration (MIC)
From the text: as §1

Work on `CCC(C)n1ncn(-c2ccc(N3CCN(c4ccc(OCC5COC(Cn6cncn6)(c6ccc(Cl)cc6Cl)O5)cc4)CC3)cc2)c1=O` (stereo not drawn) [Itraconazole] yielded an MIC (C neoformans I) of 0.03 µg/mL (≈ 0.0425 µM), an MIC (C neoformans M-106) of 0.03 µg/mL (≈ 0.0425 µM) and an MIC [1] of 0.922 µg/mL (≈ 1.31 µM). For the same compound, the MIC50 ([1]; read-out: MIC50) was 0.5 µg/mL (≈ 0.709 µM), the MIC90 ([1]; read-out: MIC90) was 256 µg/mL (≈ 363 µM) and the MIC (All fungal pathogens) was 0.437 µg/mL (≈ 0.619 µM). It also gave an MIC50 (All fungal pathogens; read-out: MIC50) of 0.19 µg/mL (≈ 0.269 µM), an MIC90 (All fungal pathogens; read-out: MIC90) of 256 µg/mL (≈ 363 µM) and an MIC (All Candida isolates) of 0.1 µg/mL (≈ 0.142 µM). For the same compound, the MIC50 (All Candida isolates; read-out: MIC50) was 0.25 µg/mL (≈ 0.354 µM), the MIC90 (All Candida isolates; read-out: MIC90) was 0.5 µg/mL (≈ 0.709 µM) and the MIC (Rhizoupus spp. isolates) was 32 µg/mL (≈ 45.3 µM). For the same compound, the MIC50 (Rhizoupus spp. isolates; read-out: MIC50) was 16 µg/mL (≈ 22.7 µM), the MIC90 (Rhizoupus spp. isolates; read-out: MIC90) was 64 µg/mL (≈ 90.7 µM) and the MIC (Fusarium spp. isolates) was 90.5 µg/mL (≈ 128 µM). For the same compound, the MIC50 (Fusarium spp. isolates; read-out: MIC50) was 64 µg/mL (≈ 90.7 µM), the MIC90 (Fusarium spp. isolates; read-out: MIC90) was 256 µg/mL (≈ 363 µM) and the MIC (All Filamentous isolates) was 0.6 µg/mL (≈ 0.85 µM). For the same compound, the MIC50 (All Filamentous isolates; read-out: MIC50) was 0.25 µg/mL (≈ 0.354 µM), the MIC90 (All Filamentous isolates; read-out: MIC90) was 256 µg/mL (≈ 363 µM) and the MIC [2] was 0.181 µg/mL (≈ 0.257 µM). It also gave an MIC50 ([2]; read-out: MIC50) of 0.25 µg/mL (≈ 0.354 µM), an MIC90 ([2]; read-out: MIC90) of 0.5 µg/mL (≈ 0.709 µM) and an MIC (Penicilliuim 2306) of 0.125 µg/mL (≈ 0.177 µM). For the same compound, the MIC (P variotii 22319 [3]) was 0.016 µg/mL (≈ 0.0227 µM), the MIC (Penicillium 1641) was 0.25 µg/mL (≈ 0.354 µM) and the MIC (Mucor (Ceylon)) was 0.125 µg/mL (≈ 0.177 µM). It also gave an MIC (Penicillium 3162) of 0.25 µg/mL (≈ 0.354 µM), an MIC (A flavus E4 - 1042) of 0.06 µg/mL (≈ 0.085 µM) and an MIC (C tropicalis 750) of 0.016 µg/mL (≈ 0.0227 µM). The MIC (Rhizopus (Ceylon)) was 64 µg/mL (≈ 90.7 µM), the MIC (A flavus E3 - 1044) was 0.03 µg/mL (≈ 0.0425 µM) and the MIC (Rhizopus 1052) was 16 µg/mL (≈ 22.7 µM). The MIC (Penicillium H - 1048) was 16 µg/mL (≈ 22.7 µM), the MIC (C krusei 6258) was 0.25 µg/mL (≈ 0.354 µM) and the MIC (A flavus P3 - 1041) was 0.06 µg/mL (≈ 0.085 µM). It also gave an MIC (C glabrata 90030) of 0.5 µg/mL (≈ 0.709 µM), an MIC (C parapsilosis 22019) of 0.03 µg/mL (≈ 0.0425 µM) and an MIC (Penicillium 2548) of 0.25 µg/mL (≈ 0.354 µM). For the same compound, the MIC (Fusarium 1050) was 64 µg/mL (≈ 90.7 µM), the MFC (P variotii 22319 [4]) was 0.06 µg/mL (≈ 0.085 µM) and the MFC (A fumigatus 1008 [5]) was 0.06 µg/mL (≈ 0.085 µM). For the same compound, the MFC (A fumigatus SI-1 - 1019 [6]) was 0.25 µg/mL (≈ 0.354 µM), the MIC (A fumigatus L - 1034) was 0.06 µg/mL (≈ 0.085 µM) and the MIC (A fumigatus PGI - 1023) was 0.03 µg/mL (≈ 0.0425 µM). It also gave an MIC (A fumigatus 1008 [7]) of 0.06 µg/mL (≈ 0.085 µM), an MIC (A fumigatus J - 1032) of 0.03 µg/mL (≈ 0.0425 µM) and an MIC (A fumigatus I - 1011) of 0.06 µg/mL (≈ 0.085 µM). It also gave an MIC (A fumigatus II - 1012) of 0.06 µg/mL (≈ 0.085 µM), an MIC (A fumigatus K - 1033) of 0.06 µg/mL (≈ 0.085 µM) and an MIC (A fumigatus SI-1 - 1019 [8]) of 0.03 µg/mL (≈ 0.0425 µM).
